Data on 16 compounds can be found in patent publication US5140009A (Tap Pharmaceuticals, Inc., priority 1990, dated 1992).

Numbered stars: 1 amine (or outer) side, 2 acyl side, 3 side chain; on linkers, the order of the positions; unused ones are H or OH. Square brackets hold non-standard residues; d marks the D form. Peptide text beside a SMILES is read from it. * marks the point of attachment. Propanoyl(3-(4-F-phenyl)) = O=C(CCc1ccc(F)cc1)*; 1Nal = N[C@@H](Cc1cccc2ccccc12)C(=O)O; d1Nal = N[C@H](Cc1cccc2ccccc12)C(=O)O; Lys(iPr) = CC(C)NCCCC[C@H](N)C(=O)O; NMeY = CN[C@@H](Cc1ccc(O)cc1)C(=O)O; dBta = N[C@H](Cc1csc2ccccc12)C(=O)O; Pyrazinecarbonyl = O=C(c1cnccn1)*; d2Thi = N[C@H](Cc1cccs1)C(=O)O; dCha = N[C@H](CC1CCCCC1)C(=O)O; Nicotinoyl = O=C(c1cccnc1)*; Morpholide = C1CN(*)CCO1; CO = O=C([*:1])[*:2]; Sar = CNCC(=O)O

For one assay, the target named is T1, LHRH receptors (Rattus norvegicus, UniProt P30969).
T1 construct: Pituitary membranes containing LHRH receptors are prepared in batches from quick-frozen rat pituitaries; tissue Hilltop Labs; host or cells: rat pituitary membranes
T1 sequence (P30969 1-327): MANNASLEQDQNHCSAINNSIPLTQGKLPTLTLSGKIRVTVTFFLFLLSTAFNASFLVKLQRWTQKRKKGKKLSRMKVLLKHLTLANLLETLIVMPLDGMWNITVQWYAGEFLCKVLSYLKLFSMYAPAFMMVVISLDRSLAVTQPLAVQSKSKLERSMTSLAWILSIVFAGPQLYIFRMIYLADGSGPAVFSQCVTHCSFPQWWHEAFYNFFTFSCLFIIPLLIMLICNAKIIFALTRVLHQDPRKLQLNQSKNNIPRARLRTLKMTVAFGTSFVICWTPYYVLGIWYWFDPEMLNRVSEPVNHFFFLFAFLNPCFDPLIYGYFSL
The experiment in a line: Receptor Binding (radioligand receptor binding assay). Conditions: table 4; rat pituitary membranes, radioligand 50 pM, 2 hours at 4° C.; read-out: Receptor Binding pkI (converted).

The next assay has as its system male castrate rats. Briefly: In vivo LH Inhibiton. Conditions: table 4, 30 ug/kg subcutaneously by bolus injection, AUC of log (LHt /LHi). Details: species or system rat. As to the method: (c) In vivo LH Inhibiton. The compound to be tested is administered at 30 ug/kg subcutaneously by bolus injection to male castrate rats and blood samples are collected periodically over 24 hours. The AUC (area under the curve) of the LH suppression data as a function of time is calculated using the formula log (LHt /LHi) wherein LHt is the LH concentration in the blood at time t and LHi is the initial baseline LH concentration in the blood. The AUC values are negative numbers.

In the case of `CC(C)C[C@H](NC(=O)[C@@H](CCCCN)NC(=O)[C@H](Cc1ccc(O)cc1)N(C)C(=O)[C@H](CO)NC(=O)[C@@H](Cc1csc2ccccc12)NC(=O)CCc1ccc(F)cc1)C(=O)N[C@@H](CCCNC(=N)N)C(=O)N1CCC[C@H]1C(=O)N[C@H](C)C(N)=O` [Compound 177, (3-10)[N-(3-(4-Fluorophenyl)propionyl)-D-3-Bal^3 -NMeTyr^5 -D-Lys^6 -D-Ala^10]LHRH] ({Propanoyl(3-(4-F-phenyl))}-[dBta]S[NMeY][dK]LRP[dA]-NH2), the Ki on LHRH receptors is 0.00589 nM. Also, the “AUC (24 hr. after 30 ug/kg)” value in the assay on male castrate rats was -938. The like results for `CC(C)C[C@H](NC(=O)[C@@H](CCCCNC(=O)c1cccnc1)NC(=O)[C@H](Cc1ccc(O)cc1)N(C)C(=O)[C@H](CO)NC(=O)[C@@H](Cc1c[nH]c2ccccc12)NC(=O)CCc1ccc(F)cc1)C(=O)N[C@@H](CCCCNC(C)C)C(=O)N1CCC[C@H]1C(=O)N[C@H](C)C(N)=O` [Compound 195, (3-10)[N-(3-(4-Fluorophenyl)propionyl)-D-Trp^3 -NMeTyr^5 -D-Lys^6 (N-epsilon-nicotinyl)-Lys^8 (N-epsilon-isopropyl)-D-Ala^10]LHRH] ({Propanoyl(3-(4-F-phenyl))}-[dW]S[NMeY][dK](Nicotinoyl)L[Lys(iPr)]P[dA]-NH2) were, in that order, 0.0234 nM and -158. In the same order, the values of `CC(C)C[C@H](NC(=O)[C@@H](CCCCNC(=O)c1cccnc1)NC(=O)[C@H](Cc1ccc(O)cc1)N(C)C(=O)[C@H](CO)NC(=O)[C@@H](Cc1cccc2ccccc12)NC(=O)CCc1ccc(F)cc1)C(=O)N[C@@H](CCCCNC(C)C)C(=O)N1CCC[C@H]1C(=O)N[C@H](C)C(N)=O` [Compound 197, (3-10)[N-(3-(4-Fluorophenyl)propionyl)-D-1-Nal^3 -NMeTyr^5 -D-Lys^6 (N-epsilon-nicotinyl)-Lys^8 (N-epsilon-isopropyl)-D-Ala^10]LHRH] ({Propanoyl(3-(4-F-phenyl))}-[d1Nal]S[NMeY][dK](Nicotinoyl)L[Lys(iPr)]P[dA]-NH2) are 0.0112 nM and -688. In the same order, the values of `CC(C)C[C@H](NC(=O)[C@@H](CCCCNC(=O)c1cnccn1)NC(=O)[C@H](Cc1ccc(O)cc1)N(C)C(=O)[C@H](CO)NC(=O)[C@@H](Cc1cccc2ccccc12)NC(=O)CCc1ccc(F)cc1)C(=O)N[C@@H](CCCCNC(C)C)C(=O)N1CCC[C@H]1C(=O)N[C@H](C)C(N)=O` [Compound 207, (3-10)[N-(3-(4-Fluorophenyl)propionyl)-D-1-Nal^3 -NMeTyr^5 -D-Lys^6 (N-epsilon-2-pyrazinyecarbonyl)-Lys^8 (N-epsilon-isopropyl)-D-Ala^10]LHRH] ({Propanoyl(3-(4-F-phenyl))}-[d1Nal]S[NMeY][dK](Pyrazinecarbonyl)L[Lys(iPr)]P[dA]-NH2) are 0.00288 nM and -412.

For `CCNC(=O)[C@@H]1CCCN1C(=O)[C@H](CCCCNC(C)C)NC(=O)[C@H](CC(C)C)NC(=O)[C@@H](CCCCNC(=O)c1cccnc1)NC(=O)[C@H](Cc1ccc(O)cc1)N(C)C(=O)[C@H](CO)NC(=O)[C@@H](Cc1cccc2ccccc12)NC(=O)CCc1ccc(F)cc1` [Compound 209, N-(3-(4-Fluorophenyl)propionyl)-D-1-Nal-Ser-NMeTyr-D-Lys(N-epsilon-nicotinyl)-Leu-Lys(N-epsilon-isopropyl)-Pro-NHEt] ({Propanoyl(3-(4-F-phenyl))}-[d1Nal]S[NMeY][dK](Nicotinoyl)L[Lys(iPr)]P-NHEt), the Ki at LHRH receptors is 0.0024 nM. In the assay with male castrate rats, the “AUC (24 hr. after 30 ug/kg)” value is reported as -343. For the compound `CCNC(=O)[C@@H]1CCCN1C(=O)[C@H](CCCNC(=N)N)NC(=O)[C@H](CC(C)C)NC(=O)[C@@H](Cc1c[nH]c2ccccc12)NC(=O)[C@H](Cc1ccc(O)cc1)NC(=O)[C@H](CO)NC(=O)[C@@H](Cc1cccs1)NC(=O)[C@H](Cc1ccccc1)NC(=O)N1CCOCC1` [Compound 236, (2-9)[N-(alpha-Morpholinocarbonyl)-Phe^2 -D-Thia^3 -D-Trp^6 -Pro^9 NHEt]LHRH] ({Morpholide-CO}-F[d2Thi]SY[dW]LRP-NHEt), the Ki on LHRH receptors was 0.708 nM. Still for that read-out and setting: the same measure for `CCNC(=O)[C@@H]1CCCN1C(=O)[C@H](CCCNC(=N)N)NC(=O)[C@H](CC(C)C)NC(=O)[C@@H](Cc1c[nH]c2ccccc12)NC(=O)[C@H](Cc1ccc(O)cc1)NC(=O)[C@H](CO)NC(=O)[C@H](Cc1cccc2ccccc12)NC(=O)[C@H](Cc1ccccc1)NC(=O)N1CCOCC1` [Compound 237, (2-9)[N-(alpha-Morpholinocarbonyl)-Phe^2-1-Nal^3 -D-Trp^6 -Pro^9 NHEt]LHRH] ({Morpholide-CO}-F[1Nal]SY[dW]LRP-NHEt): 0.0355 nM; for `CCNC(=O)N[C@@H](Cc1ccccc1)C(=O)N[C@H](Cc1cccc2ccccc12)C(=O)N[C@@H](CO)C(=O)N[C@@H](Cc1ccc(O)cc1)C(=O)N[C@H](Cc1c[nH]c2ccccc12)C(=O)N[C@@H](CC(C)C)C(=O)N[C@@H](CCCNC(=N)N)C(=O)N1CCC[C@H]1C(=O)NCC` [Compound 238, (2-9)[N-(alpha-Ethylaminocarbonyl)-Phe^2 -D-1-Nal^3 -D-Trp^6 -Pro^9 NHEt]LHRH] ({NHEt-CO}-F[d1Nal]SY[dW]LRP-NHEt): 0.251 nM. Same read-out and setting: the same measure for `CCNC(=O)N[C@@H](Cc1ccccc1)C(=O)N[C@@H](Cc1cccc2ccccc12)C(=O)N[C@@H](CO)C(=O)N[C@@H](Cc1ccc(O)cc1)C(=O)N[C@H](Cc1c[nH]c2ccccc12)C(=O)N[C@@H](CC(C)C)C(=O)N[C@@H](CCCNC(=N)N)C(=O)N1CCC[C@H]1C(=O)NCC` [Compound 239, (2-9)[N-(alpha-Ethylaminocarbonyl)-Phe^2-1-Nal^3 -D-Trp^6 -Pro^9 NHEt]LHRH] ({NHEt-CO}-F[1Nal]SY[dW]LRP-NHEt): 0.832 nM. The same measure, in the same setting: then `CC(C)C[C@H](NC(=O)[C@@H](CCCCNC(=O)c1cccnc1)NC(=O)[C@H](Cc1ccccc1)NC(=O)[C@H](CO)NC(=O)[C@@H](Cc1cccc2ccccc12)NC(=O)CCc1ccc(F)cc1)C(=O)N[C@@H](CCCCNC(C)C)C(=O)N1CCC[C@H]1C(=O)N[C@H](C)C(N)=O` [Compound 252, (3-10)[N-(3-(4-Fluorophenyl)propionyl)-D-1-Nal^3 -Phe^5 -D-Lys^6 (N-epsilon-nicotinyl)-Lys^8 (N-epsilon-isopropyl)-D-Ala^10]LHRH] ({Propanoyl(3-(4-F-phenyl))}-[d1Nal]SF[dK](Nicotinoyl)L[Lys(iPr)]P[dA]-NH2), with 0.0132 nM; and `CC(C)C[C@H](NC(=O)[C@@H](CCCCNC(=O)c1cccnc1)NC(=O)[C@H](Cc1ccc(O)cc1)N(C)C(=O)[C@H](CO)NC(=O)[C@@H](Cc1csc2ccccc12)NC(=O)CCc1ccc(F)cc1)C(=O)N[C@@H](CCCCNC(C)C)C(=O)N1CCC[C@H]1C(=O)N[C@H](C)C(N)=O` [Compound 253, (3-10)[N-(3-(4-Fluorophenyl)propionyl)-D-3-Bal^3 -NMeTyr^5 -D-Lys^6 (N-epsilon-nicotinyl)-Lys^8 (N-epsilon-isopropyl)-D-Ala^10]LHRH] ({Propanoyl(3-(4-F-phenyl))}-[dBta]S[NMeY][dK](Nicotinoyl)L[Lys(iPr)]P[dA]-NH2), with 0.00933 nM.

As to `CC(C)C[C@H](NC(=O)[C@@H](CCCCNC(=O)c1cccnc1)NC(=O)[C@H](Cc1ccc(O)cc1)N(C)C(=O)[C@H](CO)NC(=O)[C@@H](CC1CCCCC1)NC(=O)CCc1ccc(F)cc1)C(=O)N[C@@H](CCCCNC(C)C)C(=O)N1CCC[C@H]1C(=O)N[C@H](C)C(N)=O` [Compound 254, (3-10)[N-(3-(4-Fluorophenyl)propionyl)-D-Cha^3 -NMeTyr^5 -D-Lys^6 (N-epsilon-nicotinyl)-Lys^8 (N-epsilon-isopropyl)-D-Ala^10]LHRH] ({Propanoyl(3-(4-F-phenyl))}-[dCha]S[NMeY][dK](Nicotinoyl)L[Lys(iPr)]P[dA]-NH2), the Ki at LHRH receptors was 0.012 nM. Same read-out and setting: the same measure for `CC(C)C[C@H](NC(=O)[C@@H](CCCCNC(=O)c1cccnc1)NC(=O)[C@H](Cc1ccc(O)cc1)N(C)C(=O)[C@H](CO)NC(=O)[C@@H](Cc1cccc2ccccc12)NC(=O)CCc1ccc(F)cc1)C(=O)N[C@@H](CCCCNC(C)C)C(=O)N1CCC[C@H]1C(=O)N(C)CC(N)=O` [Compound 255, N-(3-(4-Fluorophenyl)propionyl)-D-1-Nal-Ser-NMeTyr-D-Lys(N-epsilon-nicotinyl)-Leu-Lys(N-epsilon-isopropyl)-Pro-SarNH2] ({Propanoyl(3-(4-F-phenyl))}-[d1Nal]S[NMeY][dK](Nicotinoyl)L[Lys(iPr)]P[Sar]-NH2): 0.0151 nM.

On to “(3-10)[N-(3-(4-Fluorophenyl)propionyl)-D-1-Nal^3 -D-Lys^6 (N-epsilon-4-methoxybenzoyl)-Lys^8 (N-epsilon-isopropyl)-D-Ala^10 ]LHRH [Compound 206]”, for which the “AUC (24 hr. after 30 ug/kg)” value in the assay on male castrate rats is on record as -412. Same read-out and setting: the same measure for “(3-10)[N-(3-(4-Fluorophenyl)propionyl)-D-Thia^3 -NMeTyr^5 -D-Lys^6 -D-Ala^ ]LHRH [Compound 166]”: -208; for “(3-10)[N-(3-(4-Fluorophenyl)propionyl)-D-Trp^3 -NMeTyr^5 -D-Lys^6 (N-epsilon-nicotinyl)-D-Ala^10 ]LHRH [Compound 163]”: -361.
